Experimental data published in patent US20230087644A1, “Probe for Specifically Detecting Pathological Collagens, and Preparation Method Therefor and Use Thereof” (LANZHOU UNIVERSITY, priority 2020, published 2023).

Key:
[1] = tested on: denatured collagen in sternum and tail tissue sections; assay: Staining of denatured collagen in paraffin-embedded mouse sternum and frozen tail tissue sections; assay type: binding; details: general statement on the probes of the embodiments
Protocol: Take the peptide probe prepared in Embodiment 1-5 for staining experiment. Paraffin staining of sternum: Embed mouse sternum tissue sections by paraffin and bake at 75° C. for 2 h; After cooling, treat the tissue with xylene twice, each time for 10 min; Then treat the slice with ethanol of gradient concentration; Finally, use ultrapure water to wash the slices twice. After removing the paraffin, treat the sternum tissue with ultrapure water at 85° C. for 10 minutes to denature collagen. Add blocking solution to the tissue section, leave it for 30 min, then suck up the solution, stain with 100 μL and 15 μM of the above peptide probe solutions, and incubate at 4° C. for 4 h; After removing the staining solution, wash with 1×PBS for 3 times, and wash the unbound probe with the washing solution; Drop mount solution, add cover slide, observe and take photos with fluorescence microscope.
Staining of frozen tail tissue: Treat tail tissue with 1% sodium dodecyl sulfate for 24 hours to denature collagen, and prepare the frozen sections. Put the slices in cold methanol and fix them at −20° C. for 10 min. Wash the frozen sections twice with PBS, add blocking solution to the tissue section, leave it for 30 min, then suck up the solution, stain with 100 μL and 15 μM of the above peptide probe solutions, and incubate at 4° C. for 2 h; After removing the staining solution, wash with 1×PBS for 3 times, and wash the unbound probe with the washing solution; Drop mount solution, add cover slide, observe and take photos with fluorescence microscope.
Results: The staining results of paraffin-embedded sternum tissues of peptide probe GOP-4, GOP-6, GOP-8, GOP-10 and GOP-12 prepared in Embodiment 1-5 of the present invention are shown in FIG. 1a.

[2] = Fluorescence spectrogram of probe solutions after 85° C. water bath and 0° C. ice bath; assay type: physicochemical; details: 300 μM probe solution, excitation 497 nm, emission 500-700 nm
Protocol: Take the peptide probe GOP-10, GPP-10, GPO-10 and GOO-10, and prepare 300 μM probe solutions respectively; Keep above probe solutions in a water bath at 85° C. for 20 min, and measure the fluorescence spectrogram by a fluorescence spectrophotometer immediately. Place heated probe solution in the ice-water mixture at 0° C. for 12 h, and measure the fluorescence spectrogram by fluorescence spectrophotometer again; The excitation wavelength is 497 nm, and the scanning range of emission spectrum is 500-700 nm.

[3] = Colorimetric assay of peptide probe solutions (trimer vs single-stranded state); assay type: physicochemical; details: 300 μM probe solution; for conformational state (colour of solution) at 0° C.: 0° C. ice-water for 12 h after heating; for conformational state (colour of solution) after heating: 85° C. water bath 20 min
Protocol: Take the peptide probe GOP-10, GPP-10, GPO-10 and GOO-10, and prepare 300 μM probe solutions respectively; Keep above probe solutions in a water bath at 85° C. for 20 min, and collect picture data via a digital camera and observe the color of the solutions. Place heated probe solution in the ice-water mixture at 0° C. for 12 h, and then collect picture data via a digital camera again and observe the color of the solution.

[4] = Thermal stability test (fluorescence intensity at 525 nm, 0-95° C.); assay type: physicochemical; details: 15 μM probe in 10 mM phosphate buffer; for fluorescence intensity in the range of 0-95° C.: 525 nm, temperature gradient; for thermal transformation temperature: from derivative curves
Protocol: Take the peptide probe GOP-10, GPP-10, GPO-10 and GOO-10, and prepare 300 μM probe solutions respectively; Dilute each probe solution to 15 μM by 10 mM phosphate buffer, and store at 0° C. for later use. Take the probe solutions respectively, raise the temperature from 0° C. to 95° C. in a gradient, and detect the fluorescence intensity of the solutions at 525 nm during the temperature rise process to obtain the […]; Conduct the first derivative of the curve by corresponding the maximum value of the curve to the thermal change temperature of the probe.

[5] = tested on: denatured collagen in mouse intestinal tissue; assay: Staining of collagen in intestinal tissue of mice by peptide probe; assay type: binding; details: 15 μM probe; for fluorescence staining ability, probe incubated at 0° C. before staining: FIG. 5a-d; for fluorescence staining ability, probe pretreated at 85° C. before staining: FIG. 5e-h
Protocol: Take the peptide probe GOP-10, GPP-10, GPO-10 and GOO-10, and prepare 300 μM probe solutions respectively; Take the intestinal tissue samples of mice paraffin embedding and slice to 4 μm; After washing and deparaffinating the slices, treat the intestinal tissue with ultrapure water at 85° C. for 10 minutes to denature collagen.

[6] = tested on: pathological collagen in human osteoarthritis tissue; assay: Staining of pathological section of human arthritis; assay type: binding; details: 15 μM probe, 4° C. 4 h
Protocol: Take human osteoarthritis tissue for paraffin embedding, slice to 4 μm, carry out washing and deparaffinating, and then add with 0.5 mL blocking solution, and suck off the liquid after placing for 30 min. Stain with 100 μL, 15 μM peptide probe solution, and incubate at 4° C. for 4 h. After removing the staining solution, stain with 100 μL DAPI diluent for 1 min. Use 1×PBS to wash for 3 times, and wash the unbound probes and excess DAPI. Drop mount solution, add cover slide, observe and take photos with fluorescence microscope.
The staining results of pathological sections of fibrocartilage of human osteoarthritis are shown in FIG. 7, and the staining results of pathological sections of hyaline cartilage of human osteoarthritis are shown in FIG. 8. […] Therefore, the peptide probe GOP-10 prepared by the invention can be used for detecting pathological collagen in human osteoarthritis fibrocartilage and osteoarthritis hyaline cartilage.

[7] = tested on: pathological collagen in mouse ear tissue; assay: Staining of collagen in ear tissue of normal mice and diseased mice by peptide probe; assay type: binding; details: 15 μM probe
Protocol: Take the peptide probe GOP-10 and prepare 300 μM probe solutions;
Take mouse ear tissue samples for paraffin embedding and slice to 4 μm; After washing and deparaffinating the slice, treat part of the ear bone tissues with ultrapure water at 85° C. for 10 minutes to denature collagen, thus obtaining injured ear tissues; Untreated ear tissue is normal ear tissue. Add blocking solution to the tissue section, leave it for 30 min, then suck up the solution, stain with 100 μL and 15 μM of the above peptide probe solutions, and incubate at 4° C. for 4 h; After removing the staining solution, stain with 100 μL DAPI diluent for lmin and wash with 1×PBS for 3 times, and wash the unbound probe and excessive DAPI diluent with the washing solution; Drop mount solution, add cover slide, observe and take photos with fluorescence microscope;
The test results are shown in FIG. 6, in which the fluorescence detection results of injured mouse ear tissues are shown in FIG. 6a and normal mouse ear tissues are shown in FIG. 6b.

Row | Substance | change of fluorescence intensity between 85° C. water bath and 0° C. ice bath [2] | conformational state (colour of solution) at 0° C. [3] | conformational state (colour of solution) after heating [3] | fluorescence intensity in the range of 0-95° C. [4] | thermal transformation temperature [4] | binding to pathological collagen [1] | fluorescence staining ability, probe incubated at 0° C. before staining [5] | fluorescence staining ability, probe pretreated at 85° C. before staining [5] | staining of pathological section of fibrocartilage of human osteoarthritis ([6]; FIG. 7) | staining of pathological section of hyaline cartilage of human osteoarthritis ([6]; FIG. 8) | fluorescence staining of injured mouse ear tissue ([7]; collagen denatured at 85° C. for 10 min, FIG. 6a) | fluorescence staining of normal mouse ear tissue ([7]; untreated ear tissue, FIG. 6b)
1 | FAM-Ahx-(GOP)12-NH2 [GOP-12] | – | – | – | – | – | can specifically bind to pathological collagen | – | – | – | – | – | –
2 | FAM-Ahx-(GOP)10-NH2 [GOP-10] | does not change | stable single-stranded conformation (green) | single-stranded state (green) | does not change | – | can specifically bind to pathological collagen | good fluorescence staining ability | good fluorescence staining ability | can specifically bind to pathological collagen | can specifically bind to pathological collagen | stained green | no green fluorescence
3 | FAM-Ahx-(GOP)8-NH2 [GOP-8] | – | – | – | – | – | can specifically bind to pathological collagen | – | – | – | – | – | –

More lines, main results first:

Row | change of fluorescence intensity between 85° C. water bath and 0° C. ice bath [2] | conformational state (colour of solution) at 0° C. [3] | conformational state (colour of solution) after heating [3] | fluorescence intensity in the range of 0-95° C. [4] | thermal transformation temperature [4] | Substance | binding to pathological collagen [1] | fluorescence staining ability, probe incubated at 0° C. before staining [5] | fluorescence staining ability, probe pretreated at 85° C. before staining [5] | staining of pathological section of fibrocartilage of human osteoarthritis ([6]; FIG. 7) | staining of pathological section of hyaline cartilage of human osteoarthritis ([6]; FIG. 8) | fluorescence staining of injured mouse ear tissue ([7]; collagen denatured at 85° C. for 10 min, FIG. 6a) | fluorescence staining of normal mouse ear tissue ([7]; untreated ear tissue, FIG. 6b)
4 | changed significantly | trimer state (orange) | single-stranded conformation (green) | increased significantly | 69 °C | FAM-Ahx-(GOO)10-NH2 [GOO-10] | – | no fluorescence staining ability | can be fluorescently stained | – | – | – | –
5 | changed significantly | trimer state (orange) | single-stranded conformation (green) | increased significantly | 63 °C | FAM-Ahx-(GPO)10-NH2 [GPO-10] | – | no fluorescence staining ability | can be fluorescently stained | – | – | – | –
6 | changed significantly | trimer state (orange) | single-stranded conformation (green) | increased significantly | 39 °C | FAM-Ahx-(GPP)10-NH2 [GPP-10] | – | no fluorescence staining ability | can be fluorescently stained | – | – | – | –
